US12403137B2, “Compounds and methods of use” (Tango Therapeutics, Inc., priority 2019, dated 2025)

Assays:
[1] = target: T1, PRMT5 (Homo sapiens, UniProt O14744); assay: PRMT5 inhibition assay with MTA as cofactor; assay type: biochemical; conditions: for IC50: against PRMT5 with MTA as cofactor; for SAM/MTA Ratio: ratio of Ki in the presence of SAM to Ki in the presence of MTA, Ki=IC50/1.5 (SAM), Ki=IC50/13.5 (MTA)
T1 construct: purchased Viva (custom protein)
Source text: (§1) The Ki values can be calculated from the IC50 values as described in the Examples section. As detailed in the Examples section, for the assay performed in the presence of SAM, IC50=Ki×1.5 (Ki=IC50/1.5). For the assay performed in the presence of MTA, IC50=Ki×13.5 (Ki=IC50/13.5). Column 6 indicates the ratio between the Ki of compounds in the presence of SAM and the Ki of compounds in the presence of MTA

[2] = target: T1, PRMT5; assay: PRMT5 inhibition assay with no cofactor; assay type: biochemical; conditions: against PRMT5 with no cofactor; read-out: No Co-factor IC50
[3] = target: T1, PRMT5; assay: PRMT5 inhibition assay with SAM as cofactor; assay type: biochemical; conditions: against PRMT5 in the presence of SAM as cofactor
Source text: as §1

[4] = test system: HAP1 MTAP-intact cell line; assay: SDMA in-cell western assay, HAP1 MTAP-intact; assay type: cell-based; conditions: Homo sapiens
Method in brief: (§2)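 IC50 values come from an SDMA in-cell western run in isogenic HAP1 cells, either MTAP-null or expressing endogenous MTAP. The intact-to-deleted IC50 ratio is used to score MTAP selectivity.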

[5] = test system: HAP1 MTAP-deleted cell line; assay: SDMA in-cell western assay, HAP1 MTAP-deleted; assay type: cell-based; conditions: for IC50: Homo sapiens, HAP1 MTAP-deleted (MTAP-null) cell line; for MTAP Intact/Deleted Ratio: IC50 ratio HAP1 MTAP-intact / HAP1 MTAP-deleted, >=3 fold considered MTAP-selective
Method in brief: as §2

T1 sequence (O14744 whole entry): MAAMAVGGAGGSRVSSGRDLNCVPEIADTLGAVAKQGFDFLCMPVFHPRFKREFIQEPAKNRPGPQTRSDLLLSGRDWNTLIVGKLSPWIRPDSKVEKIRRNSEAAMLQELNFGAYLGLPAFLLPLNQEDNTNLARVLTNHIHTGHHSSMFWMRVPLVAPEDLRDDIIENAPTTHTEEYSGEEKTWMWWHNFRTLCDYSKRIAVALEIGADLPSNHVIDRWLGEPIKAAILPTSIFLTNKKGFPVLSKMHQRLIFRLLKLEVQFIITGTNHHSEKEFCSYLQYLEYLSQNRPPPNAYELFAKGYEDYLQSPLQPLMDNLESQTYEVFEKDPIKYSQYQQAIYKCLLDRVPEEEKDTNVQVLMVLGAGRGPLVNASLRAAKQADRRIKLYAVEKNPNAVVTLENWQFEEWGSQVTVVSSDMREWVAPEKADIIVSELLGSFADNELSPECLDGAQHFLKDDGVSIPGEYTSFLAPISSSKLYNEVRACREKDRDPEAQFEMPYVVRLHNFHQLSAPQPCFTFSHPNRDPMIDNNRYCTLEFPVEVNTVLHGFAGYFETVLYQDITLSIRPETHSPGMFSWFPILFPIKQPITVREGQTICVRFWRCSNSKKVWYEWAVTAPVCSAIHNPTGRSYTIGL
T1 sequence (Q9BQA1 whole entry partner): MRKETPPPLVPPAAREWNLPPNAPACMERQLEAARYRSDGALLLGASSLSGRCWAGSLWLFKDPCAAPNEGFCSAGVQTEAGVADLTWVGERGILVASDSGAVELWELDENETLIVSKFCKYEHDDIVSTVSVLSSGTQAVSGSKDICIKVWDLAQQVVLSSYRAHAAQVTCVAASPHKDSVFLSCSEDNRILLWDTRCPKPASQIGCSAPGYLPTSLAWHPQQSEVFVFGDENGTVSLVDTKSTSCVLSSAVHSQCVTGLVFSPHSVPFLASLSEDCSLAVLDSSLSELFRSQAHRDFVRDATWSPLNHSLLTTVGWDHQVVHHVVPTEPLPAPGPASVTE

Compound | IC50 [1] | IC50 [2] | IC50 [3] | IC50 [4] | IC50 [5] | SAM/MTA Ratio [1] | MTAP Intact/Deleted Ratio [5]
Cc1ncoc1COc1ccc2c(c1)CN[C@H]([C@H](O)CNC(=O)c1ccc3c(c1)CCN(C(=O)c1ccc(Br)cc1)C3)C2 [Compound 20, 2-(4-bromobenzoyl)-N—((R)-2-hydroxy-2-((S)-7-((4-methyloxazol-5-yl)methoxy)-1,2,3,4-tetrahydroisoquinolin-3-yl)ethyl)-1,2,3,4-tetrahydroisoquinoline-6-carboxamide] | < 50 nM | 50 to 500 nM | 50 to 500 nM | 1000 to 10000 nM | < 1000 nM | A (a Ki ratio greater than or equal to 10 fold between the Ki in the presence of SAM and the Ki in the presence of MTA) | A* (an IC50 ratio greater than or equal to 10 fold between the IC50 in the HAP1 MTAP-intact cell line and the HAP1 MTAP-deleted cell line)
Cc1ncoc1COc1ccc2c(c1)CN[C@H]([C@H](O)CNC(=O)c1cc(NC3CCC3)ccn1)C2 [Compound 35, 4-(cyclobutylamino)-N—((R)-2-hydroxy-2-((S)-7-((4-methyloxazol-5-yl)methoxy)-1,2,3,4-tetrahydroisoquinolin-3-yl)ethyl)picolinamide] | < 50 nM | 500 to 5000 nM | 50 to 500 nM | 1000 to 10000 nM | < 1000 nM | A (a Ki ratio greater than or equal to 10 fold between the Ki in the presence of SAM and the Ki in the presence of MTA) | A* (an IC50 ratio greater than or equal to 10 fold between the IC50 in the HAP1 MTAP-intact cell line and the HAP1 MTAP-deleted cell line)
CCOc1cc(C(=O)N2[C@@H]3CCC[C@H]2COC3)ccc1C(=O)NC[C@@H](O)[C@@H]1Cc2ccc(OCc3cnco3)cc2CN1 [Compound 13, 4-((1R,5S)-3-oxa-9-azabicyclo[3.3.1]nonane-9-carbonyl)-2-ethoxy-N—((R)-2-hydroxy-2-((S)-7-(oxazol-5-ylmethoxy)-1,2,3,4-tetrahydroisoquinolin-3-yl)ethyl)benzamide] | 50 to 500 nM | 500 to 5000 nM | 50 to 500 nM | 1000 to 10000 nM | < 1000 nM | A (a Ki ratio greater than or equal to 10 fold between the Ki in the presence of SAM and the Ki in the presence of MTA) | A* (an IC50 ratio greater than or equal to 10 fold between the IC50 in the HAP1 MTAP-intact cell line and the HAP1 MTAP-deleted cell line)
CCOc1cc(C(=O)N2C3CCC2COC3)ccc1C(=O)NC[C@@H](O)[C@@H]1Cc2ccc(OCc3ocnc3C)cc2CN1 [Compound 12, 4-(3-oxa-8-azabicyclo[3.2.1]octane-8-carbonyl)-2-ethoxy-N—((R)-2-hydroxy-2-((S)-7-((4-methyloxazol-5-yl)methoxy)-1,2,3,4-tetrahydroisoquinolin-3-yl)ethyl)benzamide] | 50 to 500 nM | 500 to 5000 nM | 50 to 500 nM | < 1000 nM | < 1000 nM | A (a Ki ratio greater than or equal to 10 fold between the Ki in the presence of SAM and the Ki in the presence of MTA) | B* (an IC50 ratio greater than or equal to 3 fold but lower than 10 fold between the IC50 in the HAP1 MTAP-intact cell line and the HAP1 MTAP-deleted cell line)
O=C(NC[C@@H](O)[C@@H]1Cc2ccc(OCc3cnco3)cc2CN1)c1ccc(C(=O)N2CCOCC2)cc1 [Compound 1, N—((R)-2-hydroxy-2-((S)-7-(oxazol-5-ylmethoxy)-1,2,3,4-tetrahydroisoquinolin-3-yl)ethyl)-4-(morpholine-4-carbonyl)benzamide] | 50 to 500 nM | ≥ 5000 nM | 50 to 500 nM | ≥ 10000 nM | ≥ 10000 nM | A (a Ki ratio greater than or equal to 10 fold between the Ki in the presence of SAM and the Ki in the presence of MTA) | C* (an IC50 ratio of less than 3 fold between the IC50 in the HAP1 MTAP-intact cell line and the HAP1 MTAP-deleted cell line)

More lines, main results first:

IC50 [1] | IC50 [2] | IC50 [3] | IC50 [4] | IC50 [5] | Compound | SAM/MTA Ratio [1] | MTAP Intact/Deleted Ratio [5]
< 50 nM | 500 to 5000 nM | 50 to 500 nM | ≥ 10000 nM | 1000 to 10000 nM | CC(=O)N1CCC(Nc2cc(C(=O)NC[C@@H](O)[C@@H]3Cc4ccc(OCc5ocnc5C)cc4CN3)ncn2)CC1 [Compound 41, 6-[(1-acetyl-4-piperidyl)amino]-N-[(2R)-2-hydroxy-2-[(3S)-7-[(4-methyloxazol-5-yl)methoxy]-1,2,3,4-tetrahydroisoquinolin-3-yl]ethyl]pyrimidine-4-carboxamide] | A (a Ki ratio greater than or equal to 10 fold between the Ki in the presence of SAM and the Ki in the presence of MTA) | B* (an IC50 ratio greater than or equal to 3 fold but lower than 10 fold between the IC50 in the HAP1 MTAP-intact cell line and the HAP1 MTAP-deleted cell line)
< 50 nM | 50 to 500 nM | 50 to 500 nM | ≥ 10000 nM | 1000 to 10000 nM | CC(=O)N1CCC(Nc2cc(C(=O)NC[C@@H](O)[C@@H]3Cc4ccc(OCc5ocnc5C)cc4CN3)cc(N3CCCCC3)c2)CC1 [Compound 60, 3-[(1-acetyl-4-piperidyl)amino]-N-[(2R)-2-hydroxy-2-[(3S)-7-[(4-methyloxazol-5-yl)methoxy]-1,2,3,4-tetrahydroisoquinolin-3-yl]ethyl]-5-(1-piperidyl)benzamide] | A (a Ki ratio greater than or equal to 10 fold between the Ki in the presence of SAM and the Ki in the presence of MTA) | C* (an IC50 ratio of less than 3 fold between the IC50 in the HAP1 MTAP-intact cell line and the HAP1 MTAP-deleted cell line)
< 50 nM | 50 to 500 nM | 50 to 500 nM | ≥ 10000 nM | 1000 to 10000 nM | CC(=O)N1CC(Nc2cc(C(=O)NC[C@@H](O)[C@@H]3Cc4ccc(OCc5ocnc5C)cc4CN3)nc(N3CCN(C(C)C)CC3)n2)C1 [Compound 47, 6-[(1-acetylazetidin-3-yl)amino]-N-[(2R)-2-hydroxy-2-[(3S)-7-[(4-methyloxazol-5-yl)methoxy]-1,2,3,4-tetrahydroisoquinolin-3-yl]ethyl]-2-(4-isopropylpiperazin-1-yl)pyrimidine-4-carboxamide] | A (a Ki ratio greater than or equal to 10 fold between the Ki in the presence of SAM and the Ki in the presence of MTA) | C* (an IC50 ratio of less than 3 fold between the IC50 in the HAP1 MTAP-intact cell line and the HAP1 MTAP-deleted cell line)
< 50 nM | 50 to 500 nM | 50 to 500 nM | 1000 to 10000 nM | < 1000 nM | CC(=O)N1CCC(Nc2cc(C(=O)NC[C@@H](O)[C@@H]3Cc4ccc(OCc5ocnc5C)cc4CN3)cc(N3CCCCC3)n2)CC1 [Compound 40, 2-[(1-acetyl-4-piperidyl)amino]-N-[(2R)-2-hydroxy-2-[(3S)-7-[(4-methyloxazol-5-yl)methoxy]-1,2,3,4-tetrahydroisoquinolin-3-yl]ethyl]-6-(1-piperidyl)pyridine-4-carboxamide] | A (a Ki ratio greater than or equal to 10 fold between the Ki in the presence of SAM and the Ki in the presence of MTA) | A* (an IC50 ratio greater than or equal to 10 fold between the IC50 in the HAP1 MTAP-intact cell line and the HAP1 MTAP-deleted cell line)
